From patent publication US20240366648A1, “NAD-AUGMENTATION THERAPY FOR PARKINSON'S DISEASE” (Vestlandets Innovasjonsselskap AS (VIS), priority 2021, published 2024)

Tested on: cerebral NAD
Assay: 31P-MRS of the brain, phase I trial of oral NR in newly diagnosed PD patients
Format: in vivo, human
Description: A trial of tolerability and cerebral bioavailability of NAD supplementation therapy with nicotinamide riboside (“NR”), provided in the form of nicotinamide riboside chloride ([…]® from Chromadex) in PD patients was completed. In the trial, 30 individuals with newly diagnosed, drug naïve PD were randomized and given NR 500 mg×2/day or placebo for a period of 30 days. 31P-MRS was performed at baseline (Visit 1) and at on the last day of treatment (Visit 2). The scans of 27 individuals passed quality control at both visits. A single-center, double-blinded, randomized, placebo-controlled phase I trial of oral NR supplementation in newly diagnosed patients with PD was conducted. […] Due to the early onset, this patient underwent genetic investigation with whole-exome sequencing and SNP-chip based genome-wide copy number variation analysis, which excluded pathogenic mutations in PD-related genes, including PINK1 and PRKN. screening. Patient recruitment, inclusion, and follow-up was carried out by a GCP certified investigator. Sample size of 30 participants was chosen based on previously reported brain metabolic network analyses. Thirty PD patients were randomly assigned (Block size 6, allocation 1:1) to 500 mg NR, provided in the form of nicotinamide riboside chloride ([…]® from Chromadex), or placebo twice per day, 12 hours apart, using the electronic Case Report Form (Viedoc.com). The drug containers were sequentially marked by an independent third party. The […]®) and placebo were provided by ChromaDex, USA. Each NR capsule contained 250 mg of NR. Placebo capsules contained microcrystalline cellulose. The vials and capsules containing NR and placebo were identical in shape, colour, and smell. Study drug compliance was calculated from counting returned number of study capsules and self-reporting. Participants, examining physicians, medical- and research personnel were blinded for the duration of the trial. Sample size was determined by comparing previous literature with respect to the primary objective. At screening for trial entry, candidates underwent physical and neurological examination, brain MRI, and […]. Eligible patients who entered the trial were assessed at baseline (visit 1, V1) and after four weeks of exposure to either NR or placebo (visit 2, V2). At both visits, patients underwent physical and neurological examination, including assessment by the Movement Disorder Society Unified Parkinson's Disease Rating Scale section I-IV (MDS-UPDRS), and biological sampling. MR-PET was performed within one week prior to visit 1, and at visit 2. All participants remained naïve for antiparkinson drugs for the duration of the trial. All clinical assessments were performed by a blinded movement disorders expert. Each patient was examined by the same neurologist at both visits. Methodological details on each procedure are provided below. Safety was monitored through routine clinical blood tests and registration of adverse events. Adverse events (AE) were recorded and scored by the investigative physician. […] The AE relation to the study drug was scored as (1) unrelated, (2) unlikely, (3) possible, (4) probable or (5) definitely. MRI/S was conducted on a 3T Biograph mMR MR-PET scanner (Siemens Healthcare, Germany). Phosphorous MRS (31P-MRS) was performed on a double-resonant transmit/receive 1H/31P volume head-coil (Rapid Biomedical, Germany). […]

NC(=O)c1ccc[n+]([C@@H]2O[C@H](CO)[C@@H](O)[C@H]2O)c1 [NR, nicotinamide riboside]
cerebral NAD levels normalized to ATP-α, visit 2 vs baseline (NR group n=13, oral NR 500 mg x2/day, 30 days, paired t-test p=0.016): highly significant increase | other metabolites detected by 31P-MRS, change between visits (NR group, 30 days): No other detected metabolites exhibited significant change | patients showing an increase in cerebral NAD (MRS-responders) (NR recipients with MRS data, 30 days): 10/13 | patients with cerebral NAD change exceeding 10% of baseline levels (of the 10 MRS-responders among 13 NR recipients): 9 | between visit change (visit 2/visit 1) in NAD/ATP-α ratio, NR vs placebo group (oral NR 500 mg x2/day, 30 days, t-test p=0.025): significantly higher
